Data taken from patent publication US9212139B2, “Aryl substituted indoles and their use as blockers of sodium channels” (Purdue Pharma, L.P., priority 2010, dated 2015).
Read-outs that look alike come from different tables or passages of the source.

How the values were obtained:
hNav1.7 = hNav1.7 (Homo sapiens (Human), UniProt Q15858); assay: Electrophysiology (EP) assay, whole-cell patch clamp; type: cell-based; settings: read-out: EP Nav1.7 Ki
Experimental: Cells: The hNav1.7 expressing HEK-293 cells were plated on 35 mm culture dishes pre-coated with poly-D-lysine in standard DMEM culture media (Mediatech, Inc., Herndon, Va.) and incubated in a 5% CO2 incubator at 37° C. Cultured cells were used approximately 12-48 hours after plating.
Electrophysiology: On the day of experimentation, the 35 mm dish was placed on the stage of an inverted microscope equipped with a perfusion system that continuously perfuses the culture dish with fresh recording media. A gravity driven superfusion system was used to apply test solutions directly to the cell under evaluation. This system consists of an array of glass pipette glass connected to a motorized horizontal translator. The outlet of the shooter was positioned approximately 100 μm from the cell of interest.
Gigaseals were formed and the whole-cell configuration was established in voltage clamp mode, and membrane currents generated by hNav1.7 were recorded in gap-free mode. […] Signals were sampled at 50 kHz and low pass filtered at 3 kHz.
The voltage clamp protocol to examine hNav1.7 currents was as follows. First, the standard current-voltage relationship was tested by pulsing the cell from the holding voltage (Vh) of −120 mV by a series of 5 msec long square-shaped test pulses incrementing in +10 mV steps over the membrane voltage range of −90 mV to +60 mV at the pace of stimulation of 0.5 Hz. This procedure determines the voltage that elicits the maximal current (Vmax). […] This procedure determines the voltage of full inactivation (Vfull). Third, the cell was repeatedly stimulated with the following protocol, first in the absence of the test compound then in its presence. The protocol consisted of depolarizing the cell from the holding potential of −120 mV to the Vfull value for 4.5 seconds then repolarizing the cell to the holding potential for 10 ms before applying the test pulse to the Vmax for 5 ms. The amount of inhibition produced by the test compound was determined by comparing the current amplitude elicited by the test pulse in the absence and presence of the compound.
Vehicle solution used to establish base line was also contacting 0.3% DMSO.
Data analysis: Data was analyzed off-line using Clampfit software (pClamp, v. 8; Axon Instruments) and graphed using GraphPad Prizm (v. 4.0) software.

human Nav1.7 = human Nav1.7 (Homo sapiens (Human), UniProt Q15858); assay: FLIPR or FLIPR TETRA sodium dye assay with KCl and test article pre-incubation; type: cell-based
Chain of human Nav1.7 (Q15858 other isoform, or with tags, fused parts or gaps): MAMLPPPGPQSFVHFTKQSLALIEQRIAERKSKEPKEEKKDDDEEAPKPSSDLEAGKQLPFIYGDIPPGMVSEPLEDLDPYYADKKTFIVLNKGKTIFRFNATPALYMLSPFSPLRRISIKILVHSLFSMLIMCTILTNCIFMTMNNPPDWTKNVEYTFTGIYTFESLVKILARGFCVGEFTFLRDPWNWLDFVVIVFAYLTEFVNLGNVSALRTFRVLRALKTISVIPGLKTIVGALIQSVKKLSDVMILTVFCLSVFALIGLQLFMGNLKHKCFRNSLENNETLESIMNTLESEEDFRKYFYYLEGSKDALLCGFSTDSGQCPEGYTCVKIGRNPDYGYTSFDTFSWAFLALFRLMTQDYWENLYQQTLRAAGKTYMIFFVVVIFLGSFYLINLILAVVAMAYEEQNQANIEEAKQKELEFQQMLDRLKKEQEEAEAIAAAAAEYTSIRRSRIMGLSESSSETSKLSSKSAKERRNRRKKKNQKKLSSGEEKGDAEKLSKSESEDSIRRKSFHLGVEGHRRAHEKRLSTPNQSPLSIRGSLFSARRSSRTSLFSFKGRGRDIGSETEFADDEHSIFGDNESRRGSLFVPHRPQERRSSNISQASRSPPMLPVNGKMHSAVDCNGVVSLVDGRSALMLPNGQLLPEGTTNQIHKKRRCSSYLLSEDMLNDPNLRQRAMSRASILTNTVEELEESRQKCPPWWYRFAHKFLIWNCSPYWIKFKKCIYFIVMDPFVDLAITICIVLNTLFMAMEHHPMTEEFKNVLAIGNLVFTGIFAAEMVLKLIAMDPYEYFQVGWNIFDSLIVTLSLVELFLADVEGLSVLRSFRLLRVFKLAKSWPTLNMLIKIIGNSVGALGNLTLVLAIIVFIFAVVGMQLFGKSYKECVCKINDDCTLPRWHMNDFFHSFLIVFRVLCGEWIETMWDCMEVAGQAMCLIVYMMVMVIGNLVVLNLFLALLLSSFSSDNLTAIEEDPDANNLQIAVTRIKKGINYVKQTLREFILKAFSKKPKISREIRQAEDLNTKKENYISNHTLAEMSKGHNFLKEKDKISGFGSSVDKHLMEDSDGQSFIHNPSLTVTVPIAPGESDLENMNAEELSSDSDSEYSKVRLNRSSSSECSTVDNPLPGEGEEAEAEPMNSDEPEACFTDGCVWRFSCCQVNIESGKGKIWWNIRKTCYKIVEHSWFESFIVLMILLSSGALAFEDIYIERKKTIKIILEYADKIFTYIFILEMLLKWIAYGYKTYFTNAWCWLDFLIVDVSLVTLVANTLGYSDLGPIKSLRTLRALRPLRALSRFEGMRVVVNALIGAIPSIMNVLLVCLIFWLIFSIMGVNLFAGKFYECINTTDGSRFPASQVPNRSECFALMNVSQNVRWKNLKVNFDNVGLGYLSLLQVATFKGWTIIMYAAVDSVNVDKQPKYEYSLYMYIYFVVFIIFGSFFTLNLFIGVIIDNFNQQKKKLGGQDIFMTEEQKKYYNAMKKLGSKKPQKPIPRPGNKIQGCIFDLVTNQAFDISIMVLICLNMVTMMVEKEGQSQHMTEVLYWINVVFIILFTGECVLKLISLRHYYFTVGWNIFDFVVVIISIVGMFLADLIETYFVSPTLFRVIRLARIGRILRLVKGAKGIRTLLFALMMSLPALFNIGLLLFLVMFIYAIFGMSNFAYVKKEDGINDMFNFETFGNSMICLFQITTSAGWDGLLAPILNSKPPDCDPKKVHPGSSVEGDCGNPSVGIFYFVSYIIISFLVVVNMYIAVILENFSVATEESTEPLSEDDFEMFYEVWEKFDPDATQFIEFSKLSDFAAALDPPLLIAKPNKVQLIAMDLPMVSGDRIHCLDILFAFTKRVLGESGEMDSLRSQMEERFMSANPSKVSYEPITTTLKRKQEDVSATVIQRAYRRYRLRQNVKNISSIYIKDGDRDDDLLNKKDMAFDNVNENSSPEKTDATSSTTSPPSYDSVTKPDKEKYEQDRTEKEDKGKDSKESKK
Source text: For dominant selection of the Nav1.7-expressing clones, the expression plasmid co-expressed the neomycin resistance gene. […] Recombinant beta and gamma subunits were not introduced into this cell line. Additional cell lines expressing recombinant Nav1.7 cloned from other species can also be used, alone or in combination with various beta subunits, gamma subunits or chaperones.
Cell maintenance: Unless otherwise noted, cell culture reagents were purchased from Mediatech of Herndon, Va. The recombinant Nav1.7/HEK293 cells were routinely cultured in growth medium consisting of Dulbecco's […] containing 10% fetal bovine serum (FBS, Hyclone, Thermo Fisher Scientific, Logan, Utah), 100 U/mL penicillin, […], 2-4 mM L-glutamine, and […]. For natural, non-recombinant cell lines, the selective antibiotic was omitted, and additional media formulations can be applied as needed.
The intensity of this emission, but not the wavelength range, is increased when the dye is exposed to Na^+ ions, which it can bind with partial selectivity. Cells expressing Nav1.7 or other sodium channels were loaded with the CoroNa™ Green dye immediately in advance of the fluorescence assay, and then, after agonist stimulation, the mobilization of Na^+ ions was detected as the Na^+ ions flowed from the extracellular fluid into the cytoplasm through the activated sodium channel pores. The dye was stored in the dark as a lyophilized powder, and then an aliquot was dissolved immediately before the cell loading procedure, according to the instructions of the manufacturer to a stock concentration of 10 mM in DMSO. It was then diluted in the assay buffer to a 4× concentrated working solution, so that the final concentration of dye in the cell loading buffer was 5 μM.
These scorpion toxins inhibit the fast inactivation of their cognate target channels. Stock solutions of the agonists were prepared to 40 mM in DMSO (veratridine) and 1 mg/mL in dH2O (scorpion venom), and then diluted to make a 4× or 2× stock (depending on the particular assay) in assay buffer, the final concentration being 100 μM (veratridine) and 10 μg/mL (scorpion venom). Both of the agonists were purchased from Sigma Aldrich, St. Louis, Mo.
Test Compounds: Test compounds were dissolved in DMSO to yield 10 mM stock solutions. […] If a particular test article appeared to be especially potent, then the concentration curve was adjusted, e.g., to 10-fold lower concentrations, in order to perform the dose-response in a more relevant concentration range. Compound dilutions were added during the dye-loading and pre-stimulation step, and then again during the fluorescence assay, early in the kinetic read.
Data Analysis: The data were analyzed according to methods known to those skilled in the art or using the GraphPad® Prism 4.0 Program (available from GraphPad Software, San Diego, Calif.) to determine the IC50 value for the test article. At least one standard reference compound was evaluated during each experiment.
FLIPR® or FLIPR^TETRA® sodium dye assay with KCl and test article pre-incubation: Cells were prepared by plating the recombinant HEK293 cells or other host cells expressing either recombinant or non-recombinant, native, Nav1.7 alpha subunit, alone or in combination with various beta and gamma subunits at a density of ˜40,000 cells/well into a 96-well black, clear-bottom, PDL-coated plate. The assay can be adapted to 384-well or 1,536-well format, if desired, using proportionately less cells and media. […] For counter-screens of other voltage-gated sodium channels, the procedure was very similar, though optimal densities of cells, media and subsequent assay components can be fine-tuned for the particular cell line or isoform.

[1] = whole-cell patch clamp, hNav1.7 expressing HEK-293 cells
[2] = sodium dye assay with KCl, recombinant human Nav1.7 in HEK293 cells, value ± SEM
[3] = read-out: FLIPR Nav1.7 IC50 (μM) ± SEM

Chain of hNav1.7 (Q15858 other isoform, or with tags, fused parts or gaps): as above

## NC(=O)C(N)Cc1c[nH]c2ccc(-c3ccc(Oc4ccccc4)cc3)cc12 (stereo not shown) [Compound 8, 2-Amino-3-[5-(4-phenoxyphenyl)-1H-indol-3-yl]propionamide]
hNav1.7; [1]
  Ki: 670 nM
Human Nav1.7; [2]
  IC50: 0.399 ± 0.024 µM

## NC(CO)Cc1c[nH]c2ccc(-c3ccc(Oc4ccccc4)cc3)cc12 (stereo not shown) [Compound 10, 2-Amino-3-[5-(4-phenoxyphenyl)-1H-indol-3-yl]propan-1-ol]
hNav1.7
  Ki: 360 nM
Human Nav1.7; [3]
  IC50: 0.296 ± 0.087 µM

## NC(CO)Cc1c[nH]c2c(-c3ccc(Oc4ccccc4)cc3)cccc12 (stereo not shown) [Compound 22, 2-Amino-3-[7-(4-phenoxyphenyl)-1H-indol-3-yl]propan-1-ol]
hNav1.7
  Ki: 830 nM
Human Nav1.7; [3]
  IC50: 0.151 ± 0.016 µM

## NC(CO)Cc1cn(-c2ccc(Oc3ccccc3)cc2)c2ccccc12 (stereo not shown) [Compound 34, 2-Amino-3-[1-(4-phenoxyphenyl)-1H-indol-3-yl]propan-1-ol]
hNav1.7; [1]
  Ki: 260 nM
Human Nav1.7; [2]
  IC50: 0.389 ± 0.081 µM

## NC(=O)C(N)Cc1cn(-c2ccc(Oc3ccccc3)cc2)c2ccccc12 (stereo not shown) [Compound 35, 2-Amino-3-[1-(4-phenoxyphenyl)-1H-indol-3-yl]propionamide]
hNav1.7; [1]
  Ki: 40 nM
Human Nav1.7; [2]
  IC50: 0.278 ± 0.061 µM

## N#Cc1cc(Oc2ccc(-n3cc(C[C@@H](N)CO)c4ccccc43)cc2)ccc1C(F)(F)F [Compound 44, (R)-5-{4-[3-(2-Amino-3-hydroxypropyl)-1H-indol-1-yl]phenoxy}-2-(trifluoromethyl)benzonitrile]
hNav1.7; [1]
  Ki: 290 nM
Human Nav1.7; [2]
  IC50: 0.304 ± 0.046 µM

## CN(C)CCc1cn(-c2ccc(Oc3ccccc3)cc2)c2ccc(C[C@H](N)CO)cc12 [Compound 48, (S)-2-Amino-3-[3-(2-(dimethylamino)ethyl)-1-(4-phenoxyphenyl)-1H-indol-5-yl]propan-1-ol]
hNav1.7; [1]
  Ki: 1310 nM
Human Nav1.7; [2]
  IC50: 3.82 ± 1.02 µM

## N#Cc1cc(Oc2ccc(-n3cc(C[C@H](O)CO)c4ccccc43)cc2)ccc1C(F)(F)F [Compound 54, (S)-5-{4-[3-(2,3-Dihydroxypropyl)-1H-indol-1-yl]phenoxy}-2-(trifluoromethyl)benzonitrile]
hNav1.7; [1]
  Ki: 70 nM
Human Nav1.7; [2]
  IC50: 0.21 ± 0.035 µM

## COC(=O)c1ccc2c(C(O)C(N)=O)cn(-c3ccc(Oc4ccc(C(F)(F)F)c(C#N)c4)cc3)c2c1 (stereo not shown) [Compound 65, Methyl 3-(2-amino-1-hydroxy-2-oxoethyl)-1-(4-(3-cyano-4-(trifluoromethyl)phenoxy)phenyl)-1H-indole-6-carboxylate]
hNav1.7; [1]
  Ki: 1910 nM
Human Nav1.7; [2]
  IC50: 0.536 ± 0.129 µM

## N#Cc1cc(Oc2ccc(-n3cc(C(O)C(=O)NC[C@H](O)CO)c4ccccc43)cc2)ccc1C(F)(F)F (stereo partly drawn) [Compound 69, 2-(1-(4-(3-Cyano-4-(trifluoromethyl)phenoxy)phenyl)-1H-indol-3-yl)-N—((S)-2,3-dihydroxypropyl)-2-hydroxyacetamide]
hNav1.7; [1]
  Ki: 2670 nM
Human Nav1.7; [2]
  IC50: 0.732 ± 0.113 µM

## OC[C@@H](O)Cc1cn(C[C@H](O)CO)c2ccc(-c3ccc(Oc4ccc(F)cc4)cc3)cc12 [Compound 74, (2S,2′S)-3,3′-(5-(4-(4-Fluorophenoxy)phenyl)-1H-indole-1,3-diyl)bis(propane-1,2-diol)]
hNav1.7; [1]
  Ki: 920 nM
Human Nav1.7; [2]
  IC50: 0.5 ± 0.091 µM

## NC(=O)c1cccc2c1c(C[C@H](O)CO)cn2-c1ccc(Oc2ccc(F)cc2)cc1 [Compound 122, (S)-3-(2,3-Dihydroxypropyl)-1-(4-(4-fluorophenoxy)phenyl)-1H-indole-4-carboxamide]
hNav1.7; [1]
  Ki: 300 nM
Human Nav1.7; [2]
  IC50: 0.222 ± 0.036 µM

## NC(=O)c1nn(-c2ccc(Oc3ccc(C(F)(F)F)cn3)cc2)c2ccccc12 [Compound 155, 1-(4-((5-(Trifluoromethyl)pyridin-2-yl)oxy)phenyl)-1H-indazole-3-carboxamide]
hNav1.7
  Ki: 250 nM
Human Nav1.7; [3]
  IC50: 0.362 ± 0.06 µM

## N#Cc1ccc(Oc2ccc(-n3cc(C[C@H](O)CO)c4ncccc43)cc2)cc1 [Compound 175, (S)-4-(4-(3-(2,3-Dihydroxypropyl)-1H-pyrrolo[3,2-b]pyridin-1-yl)phenoxy)benzonitrile]
hNav1.7; [1]
  Ki: 170 nM
Human Nav1.7; [2]
  IC50: 0.549 ± 0.197 µM

## CCN(CC)CCn1cc(C(O)C(N)=O)c2cc(-c3ccc(Oc4ccc(F)cc4)cc3)ccc21 (stereo not shown) [Compound 179, 2-(1-(2-(Diethylamino)ethyl)-5-(4-(4-fluorophenoxy)phenyl)-1H-indol-3-yl)-2-hydroxyacetamide]
hNav1.7; [1]
  Ki: 270 nM
Human Nav1.7; [2]
  IC50: 0.912 ± 0.079 µM

## N#Cc1ccc(Oc2ccc(-n3cc(C(O)C(N)=O)c4ccccc43)cc2)cc1C(F)(F)F (stereo not shown) [Compound 193, 2-(1-(4-(4-Cyano-3-(trifluoromethyl)phenoxy)phenyl)-1H-indol-3-yl)-2-hydroxyacetamide]
Human Nav1.7; [3]
  IC50: 0.414 ± 0.026 µM

## NC(=O)C(O)c1cn(-c2ccc(Oc3ccc(C(F)(F)F)cn3)cc2)c2ccccc12 (stereo not shown) [Compound 195, 2-Hydroxy-2-(1-(4-((5-(trifluoromethyl)pyridin-2-yl)oxy)phenyl)-1H-indol-3-yl)acetamide]
Human Nav1.7; [2]
  IC50: 0.276 ± 0.011 µM

## N[C@H](CO)Cc1cn(-c2ccc(Oc3ccc(C(F)(F)F)cn3)cc2)c2ccccc12 [Compound 196, (S)-2-Amino-3-(1-(4-((5-(trifluoromethyl)pyridin-2-yl)oxy)phenyl)-1H-indol-3-yl)propan-1-ol]
Human Nav1.7; [2]
  IC50: 0.34 ± 0.023 µM

## OCCn1cc(C[C@H](O)CO)c2cc(-c3ccc(Oc4ccc(F)cc4)cc3)ccc21 [Compound 200, (S)-3-(5-(4-(4-fluorophenoxy)phenyl)-1-(2-hydroxyethyl)-1H-indol-3-yl)propane-1,2-diol]
Human Nav1.7; [2]
  IC50: 0.273 ± 0.061 µM
